In PubChem BioAssay (NCI):
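Interpolation was linear, between the two tested concentrations surrounding the appropriate level; five concentrations were tested over 48 hours in 96-well plates. TGI: concentration producing complete growth inhibition.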

Tests used:
Assay in all cases: DTP human tumour cell line panel, 48 h
U251 CNS = tested on: U251 CNS
TK-10 renal = tested on: TK-10 renal
ACHN renal = tested on: ACHN renal
UACC-62 melanoma = tested on: UACC-62 melanoma
T-47D breast = tested on: T-47D breast
NCI-H23 lung = tested on: NCI-H23 lung
NCI-H460 lung = tested on: NCI-H460 lung
UO-31 renal = tested on: UO-31 renal
SR leukemia = tested on: SR leukemia
MOLT-4 leukemia = tested on: MOLT-4 leukemia
LOX IMVI melanoma = tested on: LOX IMVI melanoma
PC-3 prostate = tested on: PC-3 prostate
OVCAR-3 ovarian = tested on: OVCAR-3 ovarian
RPMI-8226 leukemia = tested on: RPMI-8226 leukemia
UACC-257 melanoma = tested on: UACC-257 melanoma
SF-268 CNS = tested on: SF-268 CNS
SW-620 colon = tested on: SW-620 colon
RXF 393 renal = tested on: RXF 393 renal
SK-MEL-5 melanoma = tested on: SK-MEL-5 melanoma
HCT-116 colon = tested on: HCT-116 colon
OVCAR-4 ovarian = tested on: OVCAR-4 ovarian
HCT-15 colon = tested on: HCT-15 colon
CCRF-CEM leukemia = tested on: CCRF-CEM leukemia
NCI-H522 lung = tested on: NCI-H522 lung
DU-145 prostate = tested on: DU-145 prostate
KM12 colon = tested on: KM12 colon
COLO 205 colon = tested on: COLO 205 colon
HS 578T breast = tested on: HS 578T breast
NCI/ADR-RES ovarian = tested on: NCI/ADR-RES ovarian
SNB-75 CNS = tested on: SNB-75 CNS
MDA-N = tested on: MDA-N
SN12C renal = tested on: SN12C renal
HL-60(TB) leukemia = tested on: HL-60(TB) leukemia
OVCAR-8 ovarian = tested on: OVCAR-8 ovarian
HOP-62 NSCLC = tested on: HOP-62 NSCLC
BT-549 breast = tested on: BT-549 breast
MALME-3M melanoma = tested on: MALME-3M melanoma
786-0 renal = tested on: 786-0 renal
IGROV1 ovarian = tested on: IGROV1 ovarian
OVCAR-5 ovarian = tested on: OVCAR-5 ovarian
MDA-MB-231 breast = tested on: MDA-MB-231 breast
HOP-92 NSCLC = tested on: HOP-92 NSCLC
SK-MEL-28 melanoma = tested on: SK-MEL-28 melanoma
A549 NSCLC = tested on: A549 NSCLC
MCF7 breast = tested on: MCF7 breast
MDA-MB-435 = tested on: MDA-MB-435
SF-539 CNS = tested on: SF-539 CNS
EKVX NSCLC = tested on: EKVX NSCLC
M14 melanoma = tested on: M14 melanoma
HCC-2998 colon = tested on: HCC-2998 colon
K-562 leukemia = tested on: K-562 leukemia
NCI-H226 lung = tested on: NCI-H226 lung
HT29 colon = tested on: HT29 colon
SNB-19 CNS = tested on: SNB-19 CNS
SK-OV-3 ovarian = tested on: SK-OV-3 ovarian
SF-295 CNS = tested on: SF-295 CNS
A498 renal = tested on: A498 renal
CAKI-1 renal = tested on: CAKI-1 renal
SK-MEL-2 melanoma = tested on: SK-MEL-2 melanoma

Measured: TGI

COC(=O)[C@@]12CC[C@]1(C(=O)OC)C1C(C)=CC(=O)O[C@@]12C (stereo partly drawn)
not listed: A498 renal | CAKI-1 renal | SK-MEL-2 melanoma
> 100 µM: all other assays above

O=C(Nc1ccc(Cl)c(Cl)c1)C(=O)C(C1OC(=O)c2ccccc21)[N+](=O)[O-] (stereo not drawn)
not listed: RPMI-8226 leukemia | HL-60(TB) leukemia | K-562 leukemia
> 100 µM: all other assays above

Cn1c(=O)nc2n(CCO)ccnc-2c1=O
not listed: HL-60(TB) leukemia | SK-OV-3 ovarian
> 100 µM: all other assays above

Cc1c(C)c(S(=O)(=O)N(CCCCCN)OCCCN)c(C)c2c1OC(C)(C)CC2
24.8 µM: SNB-19 CNS
71.9 µM: RXF 393 renal
8.93 µM: KM12 colon
> 50.4 µM: SK-MEL-5 melanoma
33 µM: NCI-H23 lung
39 µM: ACHN renal
31.7 µM: MDA-MB-231 breast
42.5 µM: HCT-15 colon
> 40.2 µM: SW-620 colon
32 µM: SK-OV-3 ovarian
13.3 µM: OVCAR-4 ovarian | NCI-H522 lung
29 µM: 786-0 renal
> 59.7 µM: K-562 leukemia
> 70.5 µM: DU-145 prostate
19.7 µM: NCI-H460 lung
40.9 µM: A498 renal
28 µM: MALME-3M melanoma
38.6 µM: UACC-257 melanoma
> 57.8 µM: T-47D breast
67.6 µM: HOP-92 NSCLC
5.92 µM: HL-60(TB) leukemia
> 44.4 µM: LOX IMVI melanoma
29.8 µM: BT-549 breast
11.2 µM: SK-MEL-2 melanoma
30.3 µM: UACC-62 melanoma
15.3 µM: MDA-MB-435
> 55.2 µM: OVCAR-5 ovarian
25.3 µM: EKVX NSCLC
> 59.1 µM: CAKI-1 renal
11 µM: IGROV1 ovarian
> 36.9 µM: U251 CNS
31.1 µM: MDA-N
28.4 µM: HS 578T breast
41.1 µM: UO-31 renal
28.7 µM: HT29 colon
41.7 µM: NCI/ADR-RES ovarian
> 74.8 µM: COLO 205 colon
28.5 µM: SF-268 CNS
65.4 µM: SK-MEL-28 melanoma
25.7 µM: SNB-75 CNS
> 23.5 µM: CCRF-CEM leukemia
6.05 µM: HCC-2998 colon
30 µM: HCT-116 colon
32.7 µM: NCI-H226 lung
25.1 µM: HOP-62 NSCLC
19.9 µM: OVCAR-3 ovarian
45.8 µM: SF-295 CNS
48.5 µM: MOLT-4 leukemia
> 50 µM: OVCAR-8 ovarian
37.8 µM: TK-10 renal
18 µM: PC-3 prostate | RPMI-8226 leukemia
not listed: SR leukemia
> 100 µM: all other assays above

C[C@H](CCC(=O)O[C@@H]1CC[C@@]2(C)C(CC[C@H]3[C@@H]4CC[C@H]([C@H](C)CCc5nc6ccccc6[nH]5)[C@@]4(C)CC[C@@H]32)C1)[C@H]1CC[C@H]2[C@@H]3CCC4C[C@H](O)CC[C@]4(C)[C@H]3CC[C@]12C (stereo partly drawn)
61.2 µM: SNB-19 CNS
not listed: MALME-3M melanoma
> 100 µM: all other assays above

O=c1[nH]c(=O)n(C2CC(O)C(COP(=O)(O)OC3CC(n4cc(F)c(=O)[nH]c4=O)OC3COP(=O)(O)OC3CC(n4cc(F)c(=O)[nH]c4=O)OC3COP(=O)(O)OC3CC(n4cc(F)c(=O)[nH]c4=O)OC3COP(=O)(O)OC3CC(n4cc(F)c(=O)[nH]c4=O)OC3COP(=O)(O)OC3CC(n4cc(F)c(=O)[nH]c4=O)OC3COP(=O)(O)OC3CC(n4cc(F)c(=O)[nH]c4=O)OC3COP(=O)(O)OC3CC(n4cc(F)c(=O)[nH]c4=O)OC3COP(=O)(O)OC3CC(n4cc(F)c(=O)[nH]c4=O)OC3COP(=O)(O)OC3CC(n4cc(F)c(=O)[nH]c4=O)OC3CO)O2)cc1F (stereo not drawn)
1.12 µM: A498 renal
> 10 µM: SF-295 CNS
< 0.005 µM: SF-539 CNS
not listed: UACC-62 melanoma | NCI-H460 lung | OVCAR-3 ovarian | CCRF-CEM leukemia | NCI-H522 lung | MALME-3M melanoma
> 50 µM: all other assays above
